The subject of series [1] is airway smooth muscle cells. Nature of the series: Cytotoxicity: lactate dehydrogenase activity in cell supernatants. It is filed as cell-based, rat. The conditions noted are these: confluent cells incubated 24 hours; compared with DMSO vehicle (Figure 4B). On the procedure: To study the effect of DHEA and 16α-BrEA on activation of AP-1, a secondary response important in cellular growth and proliferation (Angel and Karin, (1991), supra) confluent monolayers of airway smooth muscle in 75-cm^2 Petri dishes were growth arrested for 24 hours in 0.5% FBS and DMEM and pretreated 2 hours with DHEA, 16α-BrEA or DMSO vehicle. Cells were then stimulated with 10% FBS in DMEM for 6 hours, nuclear protein was harvested, and electrophoretic mobility shift assays were performed as described below to determine if treatment with DHEA and 16α-BrEA impaired DNA binding of AP-1. Measurement of Cytotoxicity and Apoptosis. To assess for cytotoxicity, DHEA or 16α-BrEA were added to wells of airway smooth muscle cells previously grown to confluence in DMEM and 10% FBS. After 24 hours, media was microfuged 5 minutes and supernatant was assayed for lactate dehydrogenase activity using a commercially available assay (DG-1340K from Sigma). Cells were washed twice in DPBS and exposed to trypan blue dye (0.04% in Hanks' balanced salt solution). Cell counts were performed in five random fields using a 0.01-cm^2 ocular grid to quantitate the average number of damaged or dead cells that accumulated dye. […]

In another series the test system is BEAS-2B cells. As to the kind of experiment: Interleukin-8 secretion by cultured human respiratory epithelium (ELISA). It is filed as cell-based. As to conditions: 1 hr pretreatment. On the procedure:
J. Physiol. […] J. Physiol. […] Statistical Analysis. […] Significance was assumed at p < 0.05.
After 24 hours (for TNF stimulated cells) or 6 hours (for ROFA stimulated cells) media was collected and centrifuged to remove debris. […] Results are means ± standard errors of 4-6 experiments per treatment group. DMSO vehicle, as an antioxidant, reduces IL-8 secretion (a known effect) but BrEA inhibits much more profoundly.
(In general: An ELISA detects its analyte on a solid surface through an enzyme-linked reagent.)

Another series relates to c-fos. Nature of the series: Expression of c-fos protein (immunoblot) and mRNA (RT-PCR) after FBS stimulation. It is filed as cell-based, rat. The conditions noted are these: pretreated 2 hours with 10 µM (Figures 7A-7C). On the procedure: To determine if 16α-BrEA impaired expression of early response genes important for cellular proliferation, confluent 75-cm^2 Petri dishes of airway smooth muscle cells were growth arrested by incubation for 24 hours in DMEM with 0.5% FBS. Monolayers were pretreated 2 hours with 10 µM 16α-BrEA or DMSO vehicle, and stimulated by exposure to DMEM with 10% FBS for 30 minutes. Cells were then lysed and c-fos mRNA was measured by the reverse transcriptase-polymerase chain reaction, as described below. To study whether levels of c-fos protein were affected, confluent monolayers on 6-well plates were growth arrested for 24 hours in DMEM with 0.5% FBS. Cells were then pretreated 2 hours with 16α-BrEA or DMSO vehicle and stimulated with 10% FBS in DMEM for 15, 30 and 60 minutes. Cells were then lysed and c-fos protein was assayed by immunoblotting as described below.
For measurement of c-fos protein, monolayers were placed on ice, washed twice with cold DPBS, scraped into 0.5 ml boiling buffer (10% [vol/vol] glycerol and 2% [wt/vol] sodium dodecyl sulfate [SDS] in 83 mM Tris, pH 6.8) and sonicated. Aliquots were removed for protein determination, bromophenol blue and β-mercaptoethanol were added and lysates were boiled and stored as outlined above. […]

As to `C[C@]12CC[C@H](O)C[C@@H]1CC[C@@H]1[C@@H]2CC[C@]2(C)C(=O)[C@H](Br)C[C@@H]12` [16α-BrEA, 16α-bromoepiandrosterone], the “LDH activity in supernatant” value in series [1] is reported as “does not increase LDH activity”. Further, the IL-8 with BEAS-2B cells (ROFA Stimulated BEAS Cells (ROFA 50 µg/ml, 6 hr), 25 µM, ROFA + DMSO 410 ± 18) was found to be 123 ± 5 pg/mL; in the series with BEAS-2B cells (TNF Stimulated BEAS Cells (TNFα 40 ng/ml, 24 hr), 2 µM, TNF + DMSO 93 ± 14), 104 ± 31 pg/mL; in the series on BEAS-2B cells (TNF Stimulated BEAS Cells (TNFα 40 ng/ml, 24 hr), 10 µM, TNF + DMSO 93 ± 14), 52 ± 18 pg/mL; with BEAS-2B cells (TNF Stimulated BEAS Cells (TNFα 40 ng/ml, 24 hr), 50 µM, TNF + DMSO 93 ± 14), 27 ± 2 pg/mL. For the same compound, the “stimulation of c-fos protein or mRNA in response to 10% FBS” value with c-fos is recorded as “did not reduce”.

The record behind these values is patent EP0934745B1, “Use of androsterone derivatives for inhibiting DNA binding of ap-1 and airway smooth muscle proliferation” (CHARLOTTE-MECKLENBURG HOSPITAL doing business as Carolinas …, priority 1998, dated 1999).
